# From ChEMBL document CHEMBL1139133, “A spectroscopic and molecular modeling study of sinomenine binding to transferrin” (Bioorg Med Chem Lett, 2007)
# Species on record: Homo sapiens
# Experiment: Binding affinity to human serum transferrin
compound,measurement,value
COC1=C[C@@H]2[C@@H]3Cc4ccc(OC)c(O)c4[C@]2(CCN3C)CC1=O,Ka,0.68 10^3/M
